Target: T1, RORγ (Homo sapiens, UniProt P51449)
T1 sequence (P51449 269-508 limits assumed): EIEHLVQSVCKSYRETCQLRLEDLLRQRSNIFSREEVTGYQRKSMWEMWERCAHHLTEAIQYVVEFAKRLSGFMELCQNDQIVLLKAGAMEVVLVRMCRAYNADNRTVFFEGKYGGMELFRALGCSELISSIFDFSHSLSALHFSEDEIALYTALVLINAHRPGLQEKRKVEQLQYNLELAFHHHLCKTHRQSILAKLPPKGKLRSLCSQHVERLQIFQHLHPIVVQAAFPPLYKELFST
Assay: RORγ GAL4 reporter gene assay
Conditions: mean pIC50, inhibition of RORγ (GAL4-RORγ-LBD) in 293FT cells, luciferase readout, overnight incubation
Text: The RORγ ligand-binding domain (LBD) was fused to the yeast GAL4 DNA binding domain (DBD) and placed under the control of the human cytomegalovirus (CMV) immediate early promoter, using expression vector pFN26A (Promega) and standard recombinant DNA cloning methods.
To monitor the inhibitory effect of compounds on RORγ, a transcriptional reporter construct was used. The pGL4.35 vector (Promega) contains nine copies of the GAL4 Upstream Activator Sequence (UAS). This sequence drives the transcription of the luciferase reporter gene luc2P in response to binding of a fusion protein containing the GAL4 DNA binding domain, as for example expressed by the GAL4-RORγ-LBD and GAL4-VP16 expression vectors described above.
The day after transfection, cells were plated into 96 well plates, test compound was added and the plates were incubated overnight. Subsequently, the firefly luciferase activity was quantified using luciferase detection reagent and luminescence readout.
1500 μL of this reagent mixture was added to 5 μg of GAL4 fusion protein expression vector and 5 μg of the transcriptional reporter construct, and incubated at RT for 20 minutes.
Subsequently, the cells were washed with Phosphate Buffered Saline (PBS) (Lonza), after which the PBS was removed. To dissociate the cells, 1 ml of TrypLE Express (Invitrogen) was added to the flask, followed by incubation at RT until the cells visually started to detach. Cells were collected in 5 mL of assay medium (DMEM culture medium (Lonza), 10% dialyzed FBS (Invitrogen) and Pen/Strep (Lonza)) to achieve a single cell suspension. 10×10^6 cells were spun down and re-suspended in 10 mL of assay medium. Subsequently, the cell suspension was added to the transfection mix tube, and then transferred as a whole to a T75 flask (Greiner), followed by overnight (16-24 hours) incubation at 37° C. and 5% CO2.
For compound screening, the cells were harvested (as described above) and counted. […] 80 μL of cell suspension (60,000 cells) was plated per well into a white, flat bottom, tissue culture treated, 96 well screening plates (Greiner).
Test compounds were diluted, starting from a 10 mM dimethylsulfoxide (DMSO) stock solution, to serial dilutions in DMSO at 500× the final test concentration. Subsequently, these solutions were diluted to 5× the final test concentration in two 10-fold-dilution steps in assay medium. The final DMSO concentration of the 5× test compound solution was 1%. 20 μL of the 5× test compound solution was added to each test well of the 96 well plate previously plated with 80 μl cell suspension, resulting in the final test concentration with 0.2% DMSO.
The plates were incubated overnight (16-24 hours) at 37° C. and 5% CO2.
For the luciferase readout, the luciferase reagent (Britelite Plus, Perkin Elmer) was brought to RT. […] The luciferase luminescence signal was measured using a Wallac Victor Microplate Reader (Perkin Elmer).
The half maximum inhibitory concentration (IC50) values for the test compounds were calculated from the luciferase signal using GraphPad Prism software (GraphPad Software).

Compound	IC50 [nM]
COc1cc(NC(=O)Cc2ccc(S(=O)(=O)CC3CC3)cc2)ccc1C(O)(C(F)(F)F)C(F)(F)F [Example 56, 2-(4-((cyclopropylmethyl)sulfonyl)phenyl)-N-(4-(1,1,1,3,3,3-hexafluoro-2-hydroxypropan-2-yl)-3-methoxyphenyl)acetamide]	≤ 1000
O=C(Cc1ccc(S(=O)(=O)CC2CC2)cc1)Nc1ccc(C(OCc2ccccc2)(C(F)(F)F)C(F)(F)F)cc1 [Example 59, N-(4-(2-(benzyloxy)-1,1,1,3,3,3-hexafluoropropan-2-yl)phenyl)-2-(4-((cyclopropylmethyl)sulfonyl)phenyl)acetamide]	≤ 100
CCS(=O)(=O)c1ccc(CC(=O)Nc2ccc(C(O)(CC3CCCCC3)C(F)(F)F)cc2)cc1 (centres unmarked) [Example 74, N-(4-(3-cyclohexyl-1,1,1-trifluoro-2-hydroxypropan-2-yl)phenyl)-2-(4-(ethylsulfonyl)phenyl)acetamide]	≤ 1000
CCCOC(c1ccc(NC(=O)Cc2ccc(S(=O)(=O)NC3CC3)cc2)cc1)(C(F)(F)F)C(F)(F)F [Example 61, 2-(4-(N-cyclopropylsulfamoyl)phenyl)-N-(4-(1,1,1,3,3,3-hexafluoro-2-propoxypropan-2-yl)phenyl)acetamide]	≤ 100
CNS(=O)(=O)c1ccc(CC(=O)Nc2ccc(C(O)(C(F)(F)F)C(F)(F)F)cc2)cc1 [Example 6, N-(4-(1,1,1,3,3,3-hexafluoro-2-hydroxypropan-2-yl)phenyl)-2-(4-(N-methylsulfamoyl)phenyl)acetamide]	≤ 1000
O=C(Cc1ccc(S(=O)(=O)CC2CC2)cc1)Nc1ccc(C(O)(C(F)(F)F)C(F)(F)F)c(F)c1 [Example 45, 2-(4-((cyclopropylmethyl)sulfonyl)phenyl)-N-(3-fluoro-4-(1,1,1,3,3,3-hexafluoro-2-hydroxypropan-2-yl)phenyl)acetamide]	≤ 10
CC(C)(C)CC(O)(c1ccc(NC(=O)Cc2ccc(S(=O)(=O)NC3CC3)cc2)cc1)C(F)(F)F (centres unmarked) [Example 94, 2-(4-(N-cyclopropylsulfamoyl)phenyl)-N-(4-(1,1,1-trifluoro-2-hydroxy-4,4-dimethylpentan-2-yl)phenyl)acetamide]	≤ 100
CCS(=O)(=O)c1ccc(CC(=O)Nc2ccc(C(O)(CC(C)(C)C)C(F)(F)F)cc2)cc1 (centres unmarked) [Example 96, 2-(4-(ethylsulfonyl)phenyl)-N-(4-(1,1,1-trifluoro-2-hydroxy-4,4-dimethylpentan-2-yl)phenyl)acetamide]	≤ 100
CCS(=O)(=O)c1ccc(CC(=O)Nc2ccc(C(O)(C3CC3)C(F)(F)F)cc2)cc1 (centres unmarked) [Example 73, N-(4-(1-cyclopropyl-2,2,2-trifluoro-1-hydroxyethyl)phenyl)-2-(4-(ethylsulfonyl)phenyl)acetamide]	≤ 1000
CNS(=O)(=O)c1cccc(CC(=O)Nc2ccc(C(O)(C(F)(F)F)C(F)(F)F)cc2)c1 [Example 19, N-(4-(1,1,1,3,3,3-hexafluoro-2-hydroxypropan-2-yl)phenyl)-2-(3-(N-methylsulfamoyl)phenyl)acetamide]	≤ 1000
CCOC(c1ccc(NC(=O)Cc2ccc(S(=O)(=O)CC3CC3)cc2)cc1)(C(F)(F)F)C(F)(F)F [Example 53, 2-(4-((cyclopropylmethyl)sulfonyl)phenyl)-N-(4-(2-ethoxy-1,1,1,3,3,3-hexafluoropropan-2-yl)phenyl)acetamide]	≤ 100
Cc1cc(S(=O)(=O)CC2CC2)ccc1CC(=O)Nc1ccc(C(O)(C(F)(F)F)C(F)(F)F)cc1 [Example 93, 2-(4-((cyclopropylmethyl)sulfonyl)-2-methylphenyl)-N-(4-(1,1,1,3,3,3-hexafluoro-2-hydroxypropan-2-yl)phenyl)acetamide]	≤ 100
CC(C)C(O)(c1ccc(NC(=O)Cc2ccc(S(=O)(=O)NC3CC3)cc2)cc1)C(F)(F)F (centres unmarked) [Example 95, 2-(4-(N-cyclopropylsulfamoyl)phenyl)-N-(4-(1,1,1-trifluoro-2-hydroxy-3-methylbutan-2-yl)phenyl)acetamide]	≤ 1000
O=C(Cc1ccc(S(=O)(=O)CC2CC2)cc1)Nc1ccc(C(O)(C2CC2)C(F)(F)F)cc1 (centres unmarked) [Example 67, N-(4-(1-cyclopropyl-2,2,2-trifluoro-1-hydroxyethyl)phenyl)-2-(4-((cyclopropylmethyl)sulfonyl)phenyl)acetamide]	≤ 100
CCS(=O)(=O)c1ccc(CC(=O)Nc2ccc(C(O)(C(F)(F)F)C(F)(F)F)c(Cl)c2)cc1 [Example 84, N-(3-chloro-4-(1,1,1,3,3,3-hexafluoro-2-hydroxypropan-2-yl)phenyl)-2-(4-(ethylsulfonyl)phenyl)acetamide]	≤ 1000
CC(C)(C)CC(O)(c1ccc(NC(=O)Cc2ccc(S(=O)(=O)CC3CC3)cc2)cc1)C(F)(F)F (centres unmarked) [Example 82, 2-(4-((cyclopropylmethyl)sulfonyl)phenyl)-N-(4-(1,1,1-trifluoro-2-hydroxy-4,4-dimethylpentan-2-yl)phenyl)acetamide]	≤ 10

Compound	IC50 [nM]
CCS(=O)(=O)c1ccc(CC(=O)Nc2c(C)cc(C(O)(C(F)(F)F)C(F)(F)F)cc2C)cc1 [Example 23, 2-(4-(ethylsulfonyl)phenyl)-N-(4-(1,1,1,3,3,3-hexafluoro-2-hydroxypropan-2-yl)-2,6-dimethylphenyl)acetamide]	≤ 1000
O=C(Cc1ccc(S(=O)(=O)CC2CC2)cc1)Nc1ccc(C(O)C(F)(F)F)cc1 (centres unmarked) [Example 70, 2-(4-((cyclopropylmethyl)sulfonyl)phenyl)-N-(4-(2,2,2-trifluoro-1-hydroxyethyl)phenyl)acetamide]	≤ 1000
Cc1cc(C(O)(C(F)(F)F)C(F)(F)F)ccc1NC(=O)Cc1ccc(S(=O)(=O)NC2CC2)cc1 [Example 34, 2-(4-(N-cyclopropylsulfamoyl)phenyl)-N-(4-(1,1,1,3,3,3-hexafluoro-2-hydroxypropan-2-yl)-2-methylphenyl)acetamide]	≤ 1000
O=C(Cc1ccc(S(=O)(=O)NC2CC2)cc1)Nc1ccc(C(O)(C(F)(F)F)C(F)(F)F)cc1 [Example 9, 2-(4-(N-cyclopropylsulfamoyl)phenyl)-N-(4-(1,1,1,3,3,3-hexafluoro-2-hydroxypropan-2-yl)phenyl)acetamide]	≤ 100
O=C(Nc1ccc(C(O)(C(F)(F)F)C(F)(F)F)cc1)C(O)c1ccc(S(=O)(=O)CC2CC2)cc1 (centres unmarked) [Example 114, 2-(4-((cyclopropylmethyl)sulfonyl)phenyl)-N-(4-(1,1,1,3,3,3-hexafluoro-2-hydroxypropan-2-yl)phenyl)-2-hydroxyacetamide]	≤ 100
O=C(Cc1ccc(S(=O)(=O)CC2CC2)cc1)Nc1ccc(C(O)(C(F)(F)F)C(F)(F)F)nc1 [Example 110, 2-(4-((cyclopropylmethyl)sulfonyl)phenyl)-N-(6-(1,1,1,3,3,3-hexafluoro-2-hydroxypropan-2-yl)pyridin-3-yl)acetamide]	≤ 1000
CCS(=O)(=O)c1ccc(CC(=O)Nc2ccc(C(O)(C3CCCC3)C(F)(F)F)cc2)cc1 (centres unmarked) [Example 85, N-(4-(1-cyclopentyl-2,2,2-trifluoro-1-hydroxyethyl)phenyl)-2-(4-(ethylsulfonyl)phenyl)acetamide]	≤ 1000
Cc1cc(NC(=O)Cc2ccc(S(=O)(=O)CC3CC3)cc2)ccc1C(O)(C(F)(F)F)C(F)(F)F [Example 44, 2-(4-((cyclopropylmethyl)sulfonyl)phenyl)-N-(4-(1,1,1,3,3,3-hexafluoro-2-hydroxypropan-2-yl)-3-methylphenyl)acetamide]	≤ 10
CCCOC(c1ccc(NC(=O)Cc2ccc(S(=O)(=O)CC)cc2)cc1)(C(F)(F)F)C(F)(F)F [Example 49, 2-(4-(ethylsulfonyl)phenyl)-N-(4-(1,1,1,3,3,3-hexafluoro-2-propoxypropan-2-yl)phenyl)acetamide]	≤ 100
CC(O)(c1ccc(NC(=O)Cc2ccc(S(=O)(=O)CC3CC3)cc2)cc1)C(F)(F)F (centres unmarked) [Example 71, 2-(4-((cyclopropylmethyl)sulfonyl)phenyl)-N-(4-(1,1,1-trifluoro-2-hydroxypropan-2-yl)phenyl)acetamide]	≤ 100
O=C(Nc1ccc(C(O)(C(F)(F)F)C(F)(F)F)cc1)C(=O)c1ccc(S(=O)(=O)CC2CC2)cc1 [Example 102, 2-(4-((cyclopropylmethyl)sulfonyl)phenyl)-N-(4-(1,1,1,3,3,3-hexafluoro-2-hydroxypropan-2-yl)phenyl)-2-oxoacetamide]	≤ 1000
O=C(Cc1cccc(S(=O)(=O)NC2CC2)c1)Nc1ccc(C(O)(C(F)(F)F)C(F)(F)F)cc1 [Example 12, 2-(3-(N-cyclopropylsulfamoyl)phenyl)-N-(4-(1,1,1,3,3,3-hexafluoro-2-hydroxypropan-2-yl)phenyl)acetamide]	≤ 1000
CCS(=O)(=O)c1ccc(CC(=O)Nc2ccc(C(O)(C(F)(F)F)C(F)(F)F)cc2C)cc1 [Example 31, 2-(4-(ethylsulfonyl)phenyl)-N-(4-(1,1,1,3,3,3-hexafluoro-2-hydroxypropan-2-yl)-2-methylphenyl)acetamide]	≤ 1000
CCCCC(O)(c1ccc(NC(=O)Cc2ccc(S(=O)(=O)CC3CC3)cc2)cc1)C(F)(F)F (centres unmarked) [Example 64, 2-(4-((cyclopropylmethyl)sulfonyl)phenyl)-N-(4-(1,1,1-trifluoro-2-hydroxyhexan-2-yl)phenyl)acetamide]	≤ 10
Cc1cc(C(O)(C(F)(F)F)C(F)(F)F)ccc1NC(=O)Cc1ccc(S(=O)(=O)CC2CC2)cc1 [Example 43, 2-(4-((cyclopropylmethyl)sulfonyl)phenyl)-N-(4-(1,1,1,3,3,3-hexafluoro-2-hydroxypropan-2-yl)-2-methylphenyl)acetamide]	≤ 100
O=C(Cc1ccc(S(=O)(=O)NC2CC2)cc1)Nc1ccc(C(O)(C(F)(F)F)C(F)(F)F)c(Cl)c1 [Example 89, N-(3-chloro-4-(1,1,1,3,3,3-hexafluoro-2-hydroxypropan-2-yl)phenyl)-2-(4-(N-cyclopropylsulfamoyl)phenyl)acetamide]	≤ 1000
